The assay addresses T1, 5-HT3 receptors (Rattus norvegicus, UniProt P35563).
T1 sequence (P35563 24-483): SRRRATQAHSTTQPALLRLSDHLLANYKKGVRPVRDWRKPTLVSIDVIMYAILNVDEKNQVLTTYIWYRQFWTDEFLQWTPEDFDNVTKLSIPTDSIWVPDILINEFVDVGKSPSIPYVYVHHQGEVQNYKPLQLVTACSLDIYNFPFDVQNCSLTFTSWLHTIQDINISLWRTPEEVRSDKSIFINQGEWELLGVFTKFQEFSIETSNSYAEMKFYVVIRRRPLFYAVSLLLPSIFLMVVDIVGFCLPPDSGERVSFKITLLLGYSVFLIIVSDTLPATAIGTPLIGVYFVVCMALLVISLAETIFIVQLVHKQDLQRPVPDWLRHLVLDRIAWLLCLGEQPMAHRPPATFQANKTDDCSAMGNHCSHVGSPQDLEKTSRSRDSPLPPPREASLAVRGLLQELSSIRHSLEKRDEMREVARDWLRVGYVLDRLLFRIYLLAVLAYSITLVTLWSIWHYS

The structures appear in SMILES notation.

Method: The compounds of the invention are tested for 5-HT3 antagonistic activity in the rat vagus by the following procedure:
Segments of the vagus nerve from Sprague-Dawley rats were placed in a perspex chamber and perfused with Krebs solution. Electrodes, positioned at either end of the nerve segment, were used to record the potential differences which ensued upon the addition of various concentrations of 5-HT to one end of the nerve segment. Concentration-response curves to 5-HT were obtained in this manner prior to and following equilibration of the nerve segment with Krebs solution containing the test-substance.

The compound `CN1[C@@H]2CC[C@H]1C[C@@H](NC(=O)c1cn(C)c3ccccc3c1=O)C2` [Example 1, (Endo)-N-(8-methyl-8-azabicyclo [3.2.1]octan-3-yl)-1,4-dihydro-1-methyl-4-oxoquinoline-3-carboxamide] showed a Kb of 3.98 nM.

The values are drawn from patent publication US5096901A, “Pharmacologically active amides and esters containing an azabicycloalkane moiety” (John Wyeth & Brother Limited, priority 1989, dated 1992).
